The source made the active and inactive calls. No cut-off for these calls is given here.
What was measured:
[1] = biological target: T1, Leucine-rich repeat serine/threonine-protein kinase 2 (Homo sapiens, UniProt Q5S007)
Description: Inhibition of human wild type LRRK2 by qPCR analysis

[2] = biological target: Receptor-type tyrosine-protein kinase FLT3 (Homo sapiens) (UniProt P36888); assay: Inhibition of wild type human FLT3 at 1 umol by high throughput ATP-[33P] radiolabeled assay relative to control
[3] = biological target: Cytochrome P450 3A4 (Homo sapiens, UniProt P08684)
Cytochrome P450 3A4, sequence (P08684 whole entry): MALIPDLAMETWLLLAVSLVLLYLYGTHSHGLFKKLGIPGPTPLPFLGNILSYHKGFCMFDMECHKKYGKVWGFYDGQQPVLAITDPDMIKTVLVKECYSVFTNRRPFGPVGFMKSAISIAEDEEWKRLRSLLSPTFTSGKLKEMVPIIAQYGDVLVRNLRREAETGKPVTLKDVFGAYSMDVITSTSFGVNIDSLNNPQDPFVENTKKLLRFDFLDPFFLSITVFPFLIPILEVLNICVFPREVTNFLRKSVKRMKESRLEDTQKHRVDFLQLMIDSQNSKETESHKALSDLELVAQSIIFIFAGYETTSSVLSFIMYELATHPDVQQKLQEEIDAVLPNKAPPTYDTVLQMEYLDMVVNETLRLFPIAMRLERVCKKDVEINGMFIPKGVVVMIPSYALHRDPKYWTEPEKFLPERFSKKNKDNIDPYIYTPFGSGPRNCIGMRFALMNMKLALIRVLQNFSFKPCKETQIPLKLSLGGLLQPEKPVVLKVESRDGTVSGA
Description: Inhibition of CYP3A4 in human liver microsomes assessed as inhibition of dextromethorphan metabolism by HPLC/MS analysis

[4] = biological target: Cytochrome P450 2C9 (Homo sapiens, UniProt P11712)
Cytochrome P450 2C9, sequence (P11712 whole entry): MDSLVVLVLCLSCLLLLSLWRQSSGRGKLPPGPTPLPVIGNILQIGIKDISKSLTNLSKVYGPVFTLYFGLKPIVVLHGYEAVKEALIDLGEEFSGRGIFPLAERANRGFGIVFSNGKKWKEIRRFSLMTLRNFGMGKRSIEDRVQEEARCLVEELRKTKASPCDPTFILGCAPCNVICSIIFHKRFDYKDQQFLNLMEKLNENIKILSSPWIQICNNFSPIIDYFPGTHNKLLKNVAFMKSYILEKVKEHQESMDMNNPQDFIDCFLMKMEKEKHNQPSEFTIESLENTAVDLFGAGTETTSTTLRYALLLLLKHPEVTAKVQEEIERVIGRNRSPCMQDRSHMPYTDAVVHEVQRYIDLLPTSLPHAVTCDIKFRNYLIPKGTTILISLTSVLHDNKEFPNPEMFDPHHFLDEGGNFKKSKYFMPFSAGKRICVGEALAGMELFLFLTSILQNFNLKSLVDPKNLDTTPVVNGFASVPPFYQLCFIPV
Description: Inhibition of CYP2C9 in human liver microsomes assessed as inhibition of midazolam metabolism by HPLC/MS analysis

[5] = biological target: T2, Mitogen-activated protein kinase kinase kinase 11 (Homo sapiens, UniProt Q16584)
T2 sequence (Q16584 whole entry): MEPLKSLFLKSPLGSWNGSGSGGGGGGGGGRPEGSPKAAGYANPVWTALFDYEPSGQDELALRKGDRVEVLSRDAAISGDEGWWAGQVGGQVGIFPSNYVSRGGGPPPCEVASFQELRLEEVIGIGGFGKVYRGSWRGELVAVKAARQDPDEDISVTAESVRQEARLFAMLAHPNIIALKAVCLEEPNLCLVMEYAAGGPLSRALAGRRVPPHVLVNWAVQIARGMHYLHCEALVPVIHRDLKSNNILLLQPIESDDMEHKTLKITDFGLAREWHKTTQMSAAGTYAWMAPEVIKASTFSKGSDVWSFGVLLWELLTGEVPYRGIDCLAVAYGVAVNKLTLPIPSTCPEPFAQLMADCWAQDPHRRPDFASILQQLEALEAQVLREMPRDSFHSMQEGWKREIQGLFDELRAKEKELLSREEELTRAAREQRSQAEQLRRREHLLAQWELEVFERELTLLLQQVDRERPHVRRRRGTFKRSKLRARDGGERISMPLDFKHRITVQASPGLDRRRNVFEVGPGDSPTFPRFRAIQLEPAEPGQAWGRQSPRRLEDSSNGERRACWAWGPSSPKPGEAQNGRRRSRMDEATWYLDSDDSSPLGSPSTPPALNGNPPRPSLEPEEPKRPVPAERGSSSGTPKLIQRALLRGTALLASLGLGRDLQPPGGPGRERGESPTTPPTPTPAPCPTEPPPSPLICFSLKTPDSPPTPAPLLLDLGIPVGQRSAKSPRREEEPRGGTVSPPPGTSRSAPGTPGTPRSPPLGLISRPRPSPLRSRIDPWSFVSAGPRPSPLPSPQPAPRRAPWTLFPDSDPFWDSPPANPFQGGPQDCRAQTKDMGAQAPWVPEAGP
Description: Inhibition of MLK3 (unknown origin) after 20 mins by scintillation counting analysis in presence of [33P]-ATP

[6] = biological target: Cytochrome P450 2D6 (Homo sapiens, UniProt P10635)
Cytochrome P450 2D6, sequence (P10635 whole entry): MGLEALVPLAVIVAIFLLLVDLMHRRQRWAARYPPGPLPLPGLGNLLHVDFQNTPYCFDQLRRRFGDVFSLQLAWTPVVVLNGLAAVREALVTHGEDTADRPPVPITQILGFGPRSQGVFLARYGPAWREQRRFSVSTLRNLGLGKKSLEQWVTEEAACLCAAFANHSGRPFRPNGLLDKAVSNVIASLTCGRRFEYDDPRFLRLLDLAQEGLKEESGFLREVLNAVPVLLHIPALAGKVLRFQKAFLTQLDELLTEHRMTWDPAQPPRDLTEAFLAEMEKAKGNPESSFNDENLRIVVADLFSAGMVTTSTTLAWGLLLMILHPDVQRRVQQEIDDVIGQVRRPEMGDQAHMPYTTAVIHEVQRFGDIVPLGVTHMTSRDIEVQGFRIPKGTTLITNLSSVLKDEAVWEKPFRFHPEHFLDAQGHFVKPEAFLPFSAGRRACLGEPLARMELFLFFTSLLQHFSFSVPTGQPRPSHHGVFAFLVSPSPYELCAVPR
Description: Inhibition of CYP2D6 in human liver microsomes assessed as inhibition of diclofenac metabolism by HPLC/MS analysis

[7] = biological target: Mitogen-activated protein kinase kinase kinase 11 (Mus musculus, UniProt Q80XI6)
[8] = biological target: T1, Leucine-rich repeat serine/threonine-protein kinase 2; assay: Inhibition of human wild type LRRK2 at 1 uM by qPCR analysis relative to control
[9] = biological target: Calcium/calmodulin-dependent protein kinase type 1D (Homo sapiens) (UniProt Q8IU85); assay: Inhibition of human wild type CAMK1D at 1 uM by qPCR analysis relative to control
[10] = biological target: Receptor-type tyrosine-protein kinase FLT3 (Homo sapiens) (UniProt P36888); assay: Inhibition of human wild type FLT3 at 1 uM by qPCR analysis relative to control
[11] = biological target: 5'-AMP-activated protein kinase catalytic subunit alpha-2 (Homo sapiens) (UniProt P54646); assay: Inhibition of human wild type AMPKalpha2 at 1 uM by qPCR analysis relative to control
[12] = biological target: Aurora kinase C (Homo sapiens) (UniProt Q9UQB9); assay: Inhibition of human wild type Aurora kinase C at 1 uM by qPCR analysis relative to control
[13] = biological target: Mitogen-activated protein kinase kinase kinase 10 (Homo sapiens, UniProt Q02779)
Description: Inhibition of MLK2 (unknown origin) after 20 mins in presence of [33P]-ATP

[14] = biological target: Mitogen-activated protein kinase kinase kinase kinase 4 (Homo sapiens) (UniProt O95819); assay: Binding affinity to human wild type MAP4K4 at 1 uM by qPCR analysis
[15] = biological target: T3, Tyrosine-protein kinase ABL1 (Homo sapiens, UniProt P00519); assay: Inhibition of human ABL1 mutant at 1 uM by qPCR analysis
[16] = test system: Leucine-rich repeat serine/threonine-protein kinase 2 (Homo sapiens), Q5S007 [G2019S]; assay: Inhibition of human LRRK2 G2019S mutant at 1 uM by qPCR analysis relative to control
Leucine-rich repeat serine/threonine-protein kinase 2 (Homo sapiens), Q5S007 [G2019S], sequence (Q5S007 whole entry G2019S): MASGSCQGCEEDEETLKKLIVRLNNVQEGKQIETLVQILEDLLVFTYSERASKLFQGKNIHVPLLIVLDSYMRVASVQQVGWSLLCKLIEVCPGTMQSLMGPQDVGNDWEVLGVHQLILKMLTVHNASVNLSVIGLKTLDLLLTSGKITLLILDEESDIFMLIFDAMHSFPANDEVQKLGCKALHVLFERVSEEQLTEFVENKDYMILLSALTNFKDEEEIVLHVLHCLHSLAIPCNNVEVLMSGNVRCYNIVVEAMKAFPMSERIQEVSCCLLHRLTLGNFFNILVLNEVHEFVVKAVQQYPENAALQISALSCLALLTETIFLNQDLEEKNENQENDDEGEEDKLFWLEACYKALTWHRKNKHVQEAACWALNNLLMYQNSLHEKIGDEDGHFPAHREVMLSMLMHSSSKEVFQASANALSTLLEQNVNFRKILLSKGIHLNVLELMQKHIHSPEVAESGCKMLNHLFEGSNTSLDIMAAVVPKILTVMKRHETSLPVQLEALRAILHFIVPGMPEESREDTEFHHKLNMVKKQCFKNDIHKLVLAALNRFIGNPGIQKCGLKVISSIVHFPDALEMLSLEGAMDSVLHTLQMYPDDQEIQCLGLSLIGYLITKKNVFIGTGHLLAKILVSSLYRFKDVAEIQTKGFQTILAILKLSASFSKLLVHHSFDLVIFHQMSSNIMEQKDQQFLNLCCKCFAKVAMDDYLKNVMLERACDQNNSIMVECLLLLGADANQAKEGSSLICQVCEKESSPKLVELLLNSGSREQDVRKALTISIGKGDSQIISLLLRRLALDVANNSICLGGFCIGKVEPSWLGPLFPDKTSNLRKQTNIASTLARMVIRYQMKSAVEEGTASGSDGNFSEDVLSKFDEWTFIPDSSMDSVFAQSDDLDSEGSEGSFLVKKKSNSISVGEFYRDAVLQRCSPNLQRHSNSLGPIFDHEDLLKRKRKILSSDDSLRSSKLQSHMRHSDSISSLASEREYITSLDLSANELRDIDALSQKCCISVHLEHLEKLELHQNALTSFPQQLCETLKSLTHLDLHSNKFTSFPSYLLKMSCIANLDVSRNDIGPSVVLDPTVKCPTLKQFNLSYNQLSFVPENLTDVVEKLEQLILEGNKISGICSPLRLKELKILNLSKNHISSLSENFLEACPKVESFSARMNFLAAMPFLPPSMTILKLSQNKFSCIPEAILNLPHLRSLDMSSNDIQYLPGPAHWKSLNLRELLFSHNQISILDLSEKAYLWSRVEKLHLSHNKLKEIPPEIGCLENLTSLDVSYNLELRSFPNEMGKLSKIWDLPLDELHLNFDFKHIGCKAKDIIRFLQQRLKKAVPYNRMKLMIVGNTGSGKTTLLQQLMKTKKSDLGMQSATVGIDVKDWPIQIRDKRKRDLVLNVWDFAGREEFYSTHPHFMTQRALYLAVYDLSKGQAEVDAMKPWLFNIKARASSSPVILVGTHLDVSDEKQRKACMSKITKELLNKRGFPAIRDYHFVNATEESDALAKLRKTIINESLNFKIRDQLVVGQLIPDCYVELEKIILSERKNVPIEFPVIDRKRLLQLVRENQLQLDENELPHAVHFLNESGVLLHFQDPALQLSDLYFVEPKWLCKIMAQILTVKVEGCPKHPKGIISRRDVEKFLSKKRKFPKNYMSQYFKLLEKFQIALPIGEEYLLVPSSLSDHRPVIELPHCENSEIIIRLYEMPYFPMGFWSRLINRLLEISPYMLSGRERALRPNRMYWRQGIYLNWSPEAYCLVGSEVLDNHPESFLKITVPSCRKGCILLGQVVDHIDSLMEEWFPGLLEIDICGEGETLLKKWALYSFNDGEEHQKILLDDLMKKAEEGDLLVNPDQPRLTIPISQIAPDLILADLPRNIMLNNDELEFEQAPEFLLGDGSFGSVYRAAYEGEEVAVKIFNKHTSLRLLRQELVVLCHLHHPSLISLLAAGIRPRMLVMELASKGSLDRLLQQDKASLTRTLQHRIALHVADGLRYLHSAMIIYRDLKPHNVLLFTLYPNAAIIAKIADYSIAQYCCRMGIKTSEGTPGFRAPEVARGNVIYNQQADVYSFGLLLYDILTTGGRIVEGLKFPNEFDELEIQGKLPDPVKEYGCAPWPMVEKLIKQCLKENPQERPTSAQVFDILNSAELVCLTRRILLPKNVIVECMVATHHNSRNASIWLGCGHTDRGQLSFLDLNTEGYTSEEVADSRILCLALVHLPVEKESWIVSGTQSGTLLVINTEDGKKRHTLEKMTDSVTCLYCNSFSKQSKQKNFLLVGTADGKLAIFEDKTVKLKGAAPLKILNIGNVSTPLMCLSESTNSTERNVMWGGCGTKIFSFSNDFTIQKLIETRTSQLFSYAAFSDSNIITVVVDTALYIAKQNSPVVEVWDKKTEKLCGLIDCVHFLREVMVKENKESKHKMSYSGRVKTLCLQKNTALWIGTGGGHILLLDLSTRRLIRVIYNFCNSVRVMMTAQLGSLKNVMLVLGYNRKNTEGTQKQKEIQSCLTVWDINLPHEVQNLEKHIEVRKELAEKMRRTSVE

[17] = biological target: Ribosomal protein S6 kinase alpha-1 (Homo sapiens) (UniProt Q15418); assay: Inhibition of human wild type RSK1 at 1 uM by qPCR analysis
[18] = biological target: Aurora kinase A (Homo sapiens) (UniProt O14965); assay: Inhibition of human wild type Aurora kinase A at 1 uM by qPCR analysis relative to control
[19] = biological target: Calcium/calmodulin-dependent protein kinase type II subunit alpha (Homo sapiens) (UniProt Q9UQM7); assay: Inhibition of human wild type CAMK2A at 1 uM by qPCR analysis relative to control
[20] = biological target: Mast/stem cell growth factor receptor Kit (Homo sapiens) (UniProt P10721); assay: Inhibition of human wild type KIT at 1 uM by qPCR analysis relative to control
[21] = biological target: T2, Mitogen-activated protein kinase kinase kinase 11; remark: listed apart in the source
Description: Inhibition of MLK3 (unknown origin) after 20 mins in presence of [33P]-ATP

[22] = biological target: Ribosomal protein S6 kinase alpha-6 (Homo sapiens) (UniProt Q9UK32); assay: Inhibition of human wild type RSK4 at 1 uM by qPCR analysis
[23] = biological target: T4, Mitogen-activated protein kinase kinase kinase 9 (Homo sapiens, UniProt P80192); assay: Inhibition of human wild type MLK1 at 1 uM by qPCR analysis relative to control
[24] = biological target: Calcium/calmodulin-dependent protein kinase type II subunit delta (Homo sapiens) (UniProt Q13557); assay: Inhibition of human wild type CAMK2D at 1 uM by qPCR analysis relative to control
[25] = biological target: TRAF2 and NCK-interacting protein kinase (Homo sapiens) (UniProt Q9UKE5); assay: Binding affinity to human wild type TNIK at 1 uM by qPCR analysis
[26] = biological target: T3, Tyrosine-protein kinase ABL1; assay: Inhibition of human wild type ABL1 at 1 uM by qPCR analysis relative to control
[27] = biological target: T4, Mitogen-activated protein kinase kinase kinase 9
Description: Inhibition of MLK1 (unknown origin) after 20 mins in presence of [33P]-ATP

[28] = biological target: Serine/threonine-protein kinase BRSK2 (Homo sapiens) (UniProt Q8IWQ3); assay: Inhibition of human wild type BRSK2 at 1 uM by qPCR analysis relative to control
[29] = biological target: Tyrosine-protein kinase ABL1 (Homo sapiens, UniProt P00519, T315I)
Description: Inhibition of wild type human ABL1 T315I mutant by high throughput ATP-[33P] radiolabeled assay

[30] = biological target: Cyclin-dependent kinase 2 (Homo sapiens, UniProt P24941)
Description: Inhibition of wild type human CDK2 by high throughput ATP-[33P] radiolabeled assay

[31] = biological target: Inhibitor of nuclear factor kappa-B kinase subunit alpha (Homo sapiens, UniProt O15111)
Description: Inhibition of wild type human IKKa by high throughput ATP-[33P] radiolabeled assay

[32] = biological target: T5, Receptor-type tyrosine-protein kinase FLT3 (Homo sapiens, UniProt P36888)
T5 sequence (P36888 whole entry): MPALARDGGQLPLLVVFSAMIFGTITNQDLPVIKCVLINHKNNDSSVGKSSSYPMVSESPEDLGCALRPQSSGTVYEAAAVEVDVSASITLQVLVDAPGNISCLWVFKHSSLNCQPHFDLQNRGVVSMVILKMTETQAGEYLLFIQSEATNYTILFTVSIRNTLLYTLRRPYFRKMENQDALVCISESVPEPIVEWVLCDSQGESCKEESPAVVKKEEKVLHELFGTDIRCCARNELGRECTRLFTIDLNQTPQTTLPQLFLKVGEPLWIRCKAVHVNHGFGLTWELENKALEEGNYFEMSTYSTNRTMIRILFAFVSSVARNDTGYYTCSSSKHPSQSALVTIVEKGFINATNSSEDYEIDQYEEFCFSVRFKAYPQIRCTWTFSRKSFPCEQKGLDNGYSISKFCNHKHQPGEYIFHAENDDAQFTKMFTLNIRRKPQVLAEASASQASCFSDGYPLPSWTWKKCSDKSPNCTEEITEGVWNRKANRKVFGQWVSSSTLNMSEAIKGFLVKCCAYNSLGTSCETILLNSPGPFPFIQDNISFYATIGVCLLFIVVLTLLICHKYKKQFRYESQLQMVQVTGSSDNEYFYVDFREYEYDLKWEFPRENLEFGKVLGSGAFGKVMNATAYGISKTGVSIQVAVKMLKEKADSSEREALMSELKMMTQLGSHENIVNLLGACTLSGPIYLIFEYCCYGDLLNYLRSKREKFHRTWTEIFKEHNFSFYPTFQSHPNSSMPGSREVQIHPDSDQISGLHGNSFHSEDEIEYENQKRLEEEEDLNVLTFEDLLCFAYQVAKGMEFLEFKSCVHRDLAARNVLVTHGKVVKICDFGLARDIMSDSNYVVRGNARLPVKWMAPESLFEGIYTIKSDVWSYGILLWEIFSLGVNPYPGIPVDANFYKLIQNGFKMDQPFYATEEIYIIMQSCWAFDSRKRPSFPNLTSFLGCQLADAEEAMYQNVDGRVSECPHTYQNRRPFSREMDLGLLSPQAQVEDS
Description: Inhibition of wild type human FLT3 by high throughput ATP-[33P] radiolabeled assay

[33] = biological target: Insulin receptor (Homo sapiens, UniProt P06213)
Description: Inhibition of wild type human IR by high throughput ATP-[33P] radiolabeled assay

[34] = biological target: T5, Receptor-type tyrosine-protein kinase FLT3; assay: cell-based
Description: Inhibition of FLT3-L-stimulated wild type full length human FLT3 autophosphorylation expressed in MEF preincubated for 90 mins followed by FLT3-L stimulation measured after 5 mins by ELISA

[35] = biological target: Inhibitor of nuclear factor kappa-B kinase subunit beta (Homo sapiens, UniProt O14920)
Description: Inhibition of wild type human IKKb by high throughput ATP-[33P] radiolabeled assay

T1 sequence (Q5S007 whole entry): as the sequence (Q5S007 whole entry G2019S) above, with S2019G counted along it

## COc1cc(-c2cnc3[nH]c(=O)n(-c4ccc5[nH]ccc5c4)c3n2)cc(OC)c1OC
[1]
  IC50: 2970 nM
[2]
  inhibition: 88%

## COc1cc(-c2cnc3[nH]cc(-c4cnc(N)nc4)c3c2)cc(OC)c1OC
[3]
  IC50: > 30000 nM
[4]
  IC50: > 30000 nM
[5]
  IC50: 9 nM
[6]
  IC50: > 30000 nM
[7]
  IC50: 990 nM

## COc1cc(-c2cnc3[nH]cc(-c4ccc(N)nc4)c3c2)cc(OC)c1OC
[3]
  IC50: > 30000 nM
[1]
  IC50: 5 nM
[4]
  IC50: > 30000 nM
[5]
  IC50: 7 nM
[2]
  inhibition: 99%
[6]
  IC50: > 30000 nM
[7]
  IC50: 120 nM

## CCSCc1ccc2c(c1)c1c3c(c4c5cc(CSCC)ccc5n5c4c1n2[C@H]1C[C@](O)(C(=O)OC)[C@]5(C)O1)CNC3=O [CEP-1347]
[8]
  inhibition: 100%
[9]
  inhibition: > 99%
[10]
  inhibition: > 99%
[11]
  inhibition: 98%
[12]
  inhibition: > 99%
[13]
  IC50: 2 nM
[14]
  inhibition: Active
[15]
  inhibition: inactive
[16]
  inhibition: 98%
[17]
  inhibition: Active
[18]
  inhibition: > 99%
[19]
  inhibition: 84%
[20]
  inhibition: > 99%
[21]
  IC50: 6 nM
[22]
  inhibition: Active
[23]
  inhibition: > 99%
[24]
  inhibition: 87%
[25]
  inhibition: Active
[26]
  inhibition: inactive
[27]
  IC50: < 1 nM
[28]
  inhibition: 94%

## CN1CCN(Cc2ccc(-c3cnc4[nH]cc(-c5cnc6[nH]ccc6c5)c4c3)cc2)CC1
[29]
  IC50: 285 nM
[30]
  IC50: 720 nM
[31]
  IC50: 330 nM
[32]
  IC50: 9.5 nM
[5]
  IC50: 21 nM
[33]
  IC50: 1290 nM
[34]
  IC50: 730 nM
[35]
  IC50: 288 nM

## COc1cc(-c2cnc3[nH]cc(-c4ccc5[nH]ccc5c4)c3c2)cc(OC)c1OC
[3]
  IC50: > 30000 nM
[1]
  IC50: 35 nM
[4]
  IC50: > 30000 nM
[5]
  IC50: 3 nM
[2]
  inhibition: 98%
[6]
  IC50: > 30000 nM
[7]
  IC50: 2700 nM

## Nc1ncc(-c2cnc3[nH]cc(-c4ccc5[nH]ccc5c4)c3c2)cn1
[3]
  IC50: 21800 nM
[4]
  IC50: > 30000 nM
[5]
  IC50: 78 nM
[2]
  inhibition: 97%
[6]
  IC50: 13200 nM
[7]
  IC50: 510 nM

## Nc1ccc(-c2cnc3[nH]cc(-c4ccc5[nH]ccc5c4)c3c2)cn1
[3]
  IC50: 4200 nM
[1]
  IC50: 46 nM
[4]
  IC50: 13700 nM
[5]
  IC50: 19 nM
[2]
  inhibition: 98%
[6]
  IC50: 3700 nM
[7]
  IC50: 430 nM

Reference: ChEMBL document CHEMBL2434948, “Discovery, synthesis, and characterization of an orally bioavailable, brain penetrant inhibitor of mixed lineage kinase 3” (J Med Chem, 2013)
